Measured values: patent publication US5852210A, “Cinnamic acid derivatives” (G. D. Searle & Co., priority 1997, dated 1998)
Counter-ions that a name gives are not always drawn.

Key:
[1] = target: T1, Human vitronectin receptor (αv β3) (Homo sapiens, UniProt P05106+P06756); assay: Vitronectin adhesion assay (solid phase receptor assay, αvβ3); format: binding; details: inhibition of binding of biotinylated human vitronectin (1 nM) to purified receptor; Table I; read-out: AvB3 IC50
T1 construct: Human vitronectin receptor (αv β3) was purified from human placenta; from tissue; host or cells: human placenta
T1 sequence (P06756 31-889 limits assumed): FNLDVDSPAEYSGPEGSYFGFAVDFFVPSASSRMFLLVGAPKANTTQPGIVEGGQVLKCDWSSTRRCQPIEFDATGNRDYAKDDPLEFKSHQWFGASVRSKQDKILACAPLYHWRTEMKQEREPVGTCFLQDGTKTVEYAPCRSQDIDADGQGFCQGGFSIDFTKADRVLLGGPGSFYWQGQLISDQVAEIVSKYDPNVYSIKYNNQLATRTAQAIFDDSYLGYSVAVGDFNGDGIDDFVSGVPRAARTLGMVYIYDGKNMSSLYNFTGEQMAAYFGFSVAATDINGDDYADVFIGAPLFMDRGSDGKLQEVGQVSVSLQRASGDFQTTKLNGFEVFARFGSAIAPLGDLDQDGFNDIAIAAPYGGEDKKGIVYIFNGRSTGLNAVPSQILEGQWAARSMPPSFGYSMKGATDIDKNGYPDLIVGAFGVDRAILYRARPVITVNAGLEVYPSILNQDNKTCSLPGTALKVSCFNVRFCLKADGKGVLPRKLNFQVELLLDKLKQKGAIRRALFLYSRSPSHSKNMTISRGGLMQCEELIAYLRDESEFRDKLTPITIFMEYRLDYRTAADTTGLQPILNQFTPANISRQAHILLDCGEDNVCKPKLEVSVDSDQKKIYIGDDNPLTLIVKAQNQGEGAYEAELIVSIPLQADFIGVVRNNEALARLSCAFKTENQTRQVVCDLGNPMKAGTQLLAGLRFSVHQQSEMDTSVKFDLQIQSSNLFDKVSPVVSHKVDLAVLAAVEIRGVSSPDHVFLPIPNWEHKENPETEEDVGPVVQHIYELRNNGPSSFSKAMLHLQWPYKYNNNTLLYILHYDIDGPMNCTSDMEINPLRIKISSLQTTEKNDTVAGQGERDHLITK
T1 sequence (P06756 891-1048 limits assumed): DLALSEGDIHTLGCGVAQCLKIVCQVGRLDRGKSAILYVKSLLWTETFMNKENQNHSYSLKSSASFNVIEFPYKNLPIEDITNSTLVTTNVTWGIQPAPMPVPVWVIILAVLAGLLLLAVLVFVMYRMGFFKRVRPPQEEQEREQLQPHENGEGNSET
T1 sequence (P05106 27-788): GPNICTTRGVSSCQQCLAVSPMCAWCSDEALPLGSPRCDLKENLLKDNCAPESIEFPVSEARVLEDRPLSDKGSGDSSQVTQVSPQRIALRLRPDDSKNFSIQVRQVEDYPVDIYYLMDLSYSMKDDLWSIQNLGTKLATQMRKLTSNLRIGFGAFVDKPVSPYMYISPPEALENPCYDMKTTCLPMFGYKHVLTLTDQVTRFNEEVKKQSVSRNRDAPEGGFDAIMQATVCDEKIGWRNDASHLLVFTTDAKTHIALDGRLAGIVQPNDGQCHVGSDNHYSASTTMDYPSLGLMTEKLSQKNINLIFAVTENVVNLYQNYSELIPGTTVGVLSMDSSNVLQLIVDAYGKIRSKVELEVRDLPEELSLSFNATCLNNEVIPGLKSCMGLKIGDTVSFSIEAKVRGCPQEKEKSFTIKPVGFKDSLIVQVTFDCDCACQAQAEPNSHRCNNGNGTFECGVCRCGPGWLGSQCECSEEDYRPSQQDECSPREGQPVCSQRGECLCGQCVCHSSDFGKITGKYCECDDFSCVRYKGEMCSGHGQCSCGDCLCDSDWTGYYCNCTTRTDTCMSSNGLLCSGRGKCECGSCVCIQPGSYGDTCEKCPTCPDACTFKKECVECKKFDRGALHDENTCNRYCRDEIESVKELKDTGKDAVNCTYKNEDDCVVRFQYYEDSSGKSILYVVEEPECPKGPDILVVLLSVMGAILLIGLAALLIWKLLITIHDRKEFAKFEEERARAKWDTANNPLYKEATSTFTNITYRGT
Method: (§1) The activity of the compounds of the present invention was tested in the following assays.
Human vitronectin receptor (αv β3) was purified from human placenta as previously described [Pytela et al., Methods in Enzymology, 144:475-489 (1987)]. Human vitronectin was purified from fresh frozen plasma as previously described [Yatohgo et al., Cell Structure and Function, 13:281-292 (1988)]. Biotinylated human vitronectin was prepared by coupling NHS-biotin from Pierce Chemical Company (Rockford, Ill.) to purified vitronectin as previously described [Charo et al., J. Biol. Chem., 266(3):1415-1421 (1991)]. Assay buffer, OPD substrate tablets, and RIA grade BSA were obtained from Sigma (St. Louis, Mo.). Anti-biotin antibody was obtained from Calbiochem (La Jolla, Calif.). Linbro microtiter plates were obtained from Flow Labs (McLean, Va.). ADP reagent was obtained from Sigma (St. Louis, Mo.).
(§2) Solid Phase Receptor Assays
This assay was essentially the same as previously reported [Niiya et al., Blood, 70:475-483 (1987)]. The purified human vitronectin receptor (αv β3) was diluted from stock solutions to […] in Tris-buffered saline containing 1.0 mM Ca^++, Mg^++, and Mn^++, pH 7.4 (TBS^+++). The diluted receptor was immediately transferred to Linbro microtiter plates at 100 μL/well (100 ng receptor/well). The plates were sealed and incubated overnight at 4° C. to allow the receptor to bind to the wells. All remaining steps were at room temperature. The assay plates were emptied and 200 μL, of 1% RIA grade BSA in TBS^+++ (TBS^+++ /BSA) were added to block exposed plastic surfaces. Following a 2 hour incubation, the assay plates were washed with TBS^+++ using a 96 well plate washer. Logarithmic serial dilution of the test compound and controls were made starting at a stock concentration of 2 mM and using 2 nM biotinylated vitronectin in TBS^+++ /BSA as the diluent. This premixing of labeled ligand with test (or control) ligand, and subsequent transfer of 50 μL aliquots to the assay plate was carried out with a CETUS Propette robot; the final concentration of the labeled ligand was 1 nM and the highest concentration of test compound was 1.0×10^-4 M. The competition occurred for two hours after which all wells were washed with a plate washer as before. Affinity purified horseradish peroxidase labeled goat anti-biotin antibody was diluted 1:3000 in TBS^+++ /BSA and 125 μL were added to each well. After 30 minutes, the plates were washed and incubated with OPD/H2 O2 substrate in 100 mM/L Citrate buffer, pH 5.0. The plate was read with a microtiter plate reader at a wavelength of 450 nm and when the maximum-binding control wells reached an absorbance of about 1.0, the final A450 were recorded for analysis. The data were analyzed using a macro written for use with the EXCEL™ spreadsheet program. The mean, standard deviation, and % CV were determined for duplicate concentrations. The mean A450 values were normalized to the mean of four maximum-binding controls (no competitor added) (B-MAX). The normalized values were subjected to a four parameter curve fit algorithm [Rodbard et al., Int.

[2] = target: T2, Human fibrinogen receptor (αIIb β3) (Homo sapiens, UniProt P05106+P08514); assay: Purified IIb/IIIa receptor assay (solid phase receptor assay); details: inhibition of binding of biotinylated human vitronectin (1 nM) to purified receptor; Table I
T2 construct: Human fibrinogen receptor (αIIb β3) was purified from outdated platelets; from tissue; host or cells: human outdated platelets
T2 sequence (P08514 32-887 limits assumed): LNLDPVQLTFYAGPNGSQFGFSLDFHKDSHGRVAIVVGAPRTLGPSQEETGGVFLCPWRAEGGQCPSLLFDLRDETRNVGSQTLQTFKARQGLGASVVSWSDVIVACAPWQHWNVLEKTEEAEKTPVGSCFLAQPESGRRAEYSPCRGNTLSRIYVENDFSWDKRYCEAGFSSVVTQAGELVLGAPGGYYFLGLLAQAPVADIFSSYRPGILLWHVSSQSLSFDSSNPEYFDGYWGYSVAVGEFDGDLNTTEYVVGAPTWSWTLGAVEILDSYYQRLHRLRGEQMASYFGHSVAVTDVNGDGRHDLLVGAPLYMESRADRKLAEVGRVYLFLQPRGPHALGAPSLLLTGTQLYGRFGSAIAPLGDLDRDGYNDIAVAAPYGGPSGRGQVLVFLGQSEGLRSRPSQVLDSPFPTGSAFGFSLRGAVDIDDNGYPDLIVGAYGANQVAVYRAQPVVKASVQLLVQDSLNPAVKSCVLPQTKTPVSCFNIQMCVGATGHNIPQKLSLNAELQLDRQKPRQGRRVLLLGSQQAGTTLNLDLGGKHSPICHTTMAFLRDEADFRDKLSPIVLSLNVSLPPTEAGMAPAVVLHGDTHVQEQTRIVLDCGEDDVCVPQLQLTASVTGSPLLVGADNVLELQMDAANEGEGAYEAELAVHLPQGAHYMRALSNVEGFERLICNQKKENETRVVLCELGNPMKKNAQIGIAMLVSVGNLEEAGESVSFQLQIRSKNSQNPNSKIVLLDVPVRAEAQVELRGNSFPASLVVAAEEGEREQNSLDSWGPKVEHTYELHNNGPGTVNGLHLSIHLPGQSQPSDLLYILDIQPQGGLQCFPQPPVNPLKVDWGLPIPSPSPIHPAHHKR
T2 sequence (P08514 891-1039 limits assumed): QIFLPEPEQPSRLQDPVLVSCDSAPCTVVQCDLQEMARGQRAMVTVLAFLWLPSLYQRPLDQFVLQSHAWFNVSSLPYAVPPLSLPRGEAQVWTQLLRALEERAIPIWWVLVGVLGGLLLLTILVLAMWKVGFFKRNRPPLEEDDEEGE
T2 sequence (P05106 27-788): as the sequence (P05106 27-788) above
Method: as §1
Human fibrinogen receptor (αIIb β3) was purified from outdated platelets. (Pytela, R., Pierschbacher, M. D., Argraves, S., Suzuki, S., and Rouslahti, E. "Arginine-Glycine-Aspartic acid adhesion receptors", Methods in Enzymology 144(1987):475-489.) Human vitronectin was purified from fresh frozen plasma as described in Yatohgo, T., Izumi, M., Kashiwagi, H., and Hayashi, M., "Novel purification of vitronectin from human plasma by heparin affinity chromatography," Cell Structure and Function 13(1988):281-292. Biotinylated human vitronectin was prepared by coupling NHS-biotin from Pierce Chemical Company (Rockford, Ill.) to purified vitronectin as previously described. (Charo, I. F., Nannizzi, L., Phillips, D. R., Hsu, M. A., Scarborough, R. M., "Inhibition of fibrinogen binding to GP IIb/IIIa by a GP IIIa peptide", J. Biol. Chem. 266(3) (1991): 1415-1421.) Assay buffer, OPD substrate tablets, and RIA grade BSA were obtained from Sigma (St. Louis, Mo.). Anti-biotin antibody was obtained from Calbiochem (La Jolla, Calif.). Linbro microtiter plates were obtained from Flow Labs (McLean, Va.). ADP reagent was obtained from Sigma (St. Louis, Mo.).
as §2
This assay is essentially the same reported in Niiya, K., Hodson, E., Bader, R., Byers-Ward, V. Koziol, J. A., Plow, E. F. and Ruggeri, Z. M., "Increased surface expression of the membrane glycoprotein IIb/IIIa complex induced by platelet activation: Relationships to the binding of fibrinogen and platelet aggregation", Blood 70 (1987):475-483. The purified human fibrinogen receptor (αIIb β3) was diluted from stock solutions to 1.0 μg/mL in Tris-buffered saline containing 1.0 mM Ca^++, Mg^++, and Mn^++, pH 7.4 (TBS^+++). The diluted receptor was immediately transferred to Linbro microtiter plates at 100 μL/well (100 ng receptor/well). The plates were sealed and incubated overnight at 4° C. to allow the receptor to bind to the wells. All remaining steps were at room temperature. The assay plates were emptied and 200 μL of 1% RIA grade BSA in TBS^+++ (TBS^+++ /BSA) were added to block exposed plastic surfaces. Following a 2 hour incubation, the assay plates were washed with TBS^+++ using a 96 well plate washer. Logarithmic serial dilution of the test compound and controls were made starting at a stock concentration of 2 mM and using 2 nM biotinylated vitronectin in TBS^+++ /BSA as the diluent. This premixing of labeled ligand with test (or control) ligand, and subsequent transfer of 50 μL aliquots to the assay plate was carried out with a CETUS Propette robot; the final concentration of the labeled ligand was 1 nM and the highest concentration of test compound was 1.0×10^-4 M. The competition occurred for two hours after which all wells were washed with a plate washer as before. Affinity purified horseradish peroxidase labeled goat anti-biotin antibody was diluted 1:3000 in TBS^+++ /BSA and 125 μL were added to each well. After 30 minutes, the plates were washed and incubated with […]/H2 O2 substrate in 100 mM/L citrate buffer, pH 5.0. The plate was read with a microtiter plate reader at a wavelength of 450 nm and when the maximum-binding control wells reached an absorbance of about 1.0, the final A450 were recorded for analysis. The data were analyzed using a macro written for use with the EXCEL™ spreadsheet program. The mean, standard deviation, and % CV were determined for duplicate concentrations. The mean A450 values were normalized to the mean of four maximum-binding controls (no competitor added) (B-MAX). The normalized values were subjected to a four parameter curve fit algorithm, [Robard et al., Int.

IC50 [1] | IC50 [2] | Compound
0.53 nM | 439 nM | CCc1cc(/C=C/C(=O)O)ccc1NC(=O)c1cccc(NC2=NCCCN2)c1 [Example 19, 3-[3-ethyl-4-[[[3-[(1,4,5,6-tetrahydropyrimidin-2-yl)amino]phenyl]carbonyl]amino]phenyl]propenoic acid, trifluoroacetate salt]
0.49 nM | 125 nM | CCc1cc(/C=C/C(=O)O)ccc1NC(=O)c1cccc(NC2=NCCN2)c1 [Example 21, 3-[4-[[[3-[(4,5-dihydro-1H-imidazol-2-yl)amino]-phenyl]carbonyl]amino]-3-ethylphenyl]propenoic acid, trifluoroacetate salt]
0.48 nM | 234 nM | O=C(O)/C=C/c1ccc(NC(=O)c2cccc(NC3=NCCCN3)c2)c(Cl)c1 [Example 22, 3-[3-chloro-4-[[[3-[(1,4,5,6-tetrahydropyrimidin-2-yl)amino]phenyl]carbonyl]amino]phenyl]propenoic acid, trifluoroacetate salt]
0.31 nM | 80.3 nM | O=C(O)/C=C/c1ccc(NC(=O)c2cccc(NC3=NCCN3)c2)c(Cl)c1 [Example 23, 3-[3-chloro-4-[[[3-[(4,5-dihydro-1H-imidazol-2-yl)amino]-phenyl]carbonyl]amino]phenyl]-2E-propenoic acid, trifluoroacetate salt]
4.93 nM | 8270 nM | Cc1cc(/C=C/C(=O)O)cc(C)c1NC(=O)c1cccc(NC2=NCCCN2)c1 [Example 24, 3-[3,5-dimethyl-4-[[[3-[(1,4,5,6-tetrahydropyrimidin-2-yl)amino]phenyl]carbonyl]amino]phenyl]-2E-propenoic acid, bis(trifluoroacetate salt)]
2.82 nM | 1830 nM | Cc1cc(/C=C/C(=O)O)cc(C)c1NC(=O)c1cccc(NC2=NCCN2)c1 [Example 25, 3-[4-[[[3-[(4,5-dihydroimidazol-2-yl)amino]-phenyl]carbonyl]amino]-3,5-dimethylphenyl]-2E-propenoic acid, trifluoroacetate salt]
204 nM | > 100000 nM | Cc1cc(/C=C/C(=O)O)cc(C)c1NC(=O)c1cccc(NC(N)=O)c1 [Example 27, 3-[4-[[[3-[(aminocarbonyl)amino]phenyl]carbonyl]-amino]-3,5-dimethylphenyl]propenoic acid, trifluoroacetate salt]
1830 nM | 25400 nM | N=C(N)Nc1cccc(C(=O)Nc2cc(Cl)c(/C=C/C(=O)O)c(Cl)c2)c1 [Example 29, 3-[4-[[[3-[(aminoiminomethyl)amino]phenyl]carbonyl]-amino]-2,6-dichlorophenyl]propenoic acid, dihydrochloride dihydrate]
9.66 nM | 69.1 nM | COc1cc(NC(=O)c2cccc(NC(=N)N)c2)ccc1/C=C/C(=O)O [Example 31, 3-[4-[[[3-(aminoiminomethyl)amino]phenyl]carbonyl]-amino]-2-methoxyphenyl]propenoic acid, trifluoroacetate salt]
73.3 nM | 121 nM | Cc1cc(NC(=O)c2cccc(NC(=N)N)c2)ccc1/C=C/C(=O)O [Example 33, 3-[4-[[[3-[(aminoiminomethyl)amino]phenyl]carbonyl]-amino]-2-methylphenyl]propenoic acid, trifluoroacetate salt]
122 nM | 152 nM | N=C(N)Nc1cccc(C(=O)Nc2ccc(/C=C/C(=O)O)c(C(F)(F)F)c2)c1 [Example 35, trifluoroacetate salt]
1.23 nM | 9.06 nM | N=C(N)Nc1cccc(C(=O)Nc2ccc(/C=C/C(=O)O)c(C(=O)O)c2)c1 [Example 36, 5-[[[3-[(aminoiminomethyl)amino]phenyl]carbonyl]amino]-2-(2-carboxyethenyl)benzoic acid, trifluoroacetate salt]
32.3 nM | 80 nM | COC(=O)c1cc(NC(=O)c2cccc(NC(=N)N)c2)ccc1/C=C/C(=O)O [Example 37, methyl 5-[[[3-[(aminoiminomethyl)amino]phenyl]carbonyl]amino]-2-(2-carboxyethenyl)benzoate, trifluoroacetate salt]
0.45 nM | 97.2 nM | O=C(O)/C=C/c1ccc(NC(=O)c2cccc(NC3=NCCCN3)c2)cc1C(=O)O [Example 40A, 2-(2-carboxyethenyl)-5-[[[3-[(1,4,5,6-tetrahydropyrimidin-2-yl)amino]phenyl]carbonyl]amino]benzoic acid, trifluoroacetate salt]
5.71 nM | 817 nM | COC(=O)c1cc(NC(=O)c2cccc(NC3=NCCCN3)c2)ccc1/C=C/C(=O)O [Example 40B, methyl 2-(2-carboxyethenyl)-5-[[[3-[(1,4,5,6-tetrahydropyrimidin-2-yl)amino]phenyl]carbonyl]amino]benzoate, trifluoroacetate salt]
176 nM | 20400 nM | COC(=O)/C=C/c1ccc(NC(=O)c2cccc(NC3=NCCCN3)c2)cc1C(=O)O [Example 40C, 2-[2-(methoxycarbonyl)ethenyl]-5-[[[3-[(1,4,5,6-tetrahydropyrimidin-2-yl)amino]phenyl]carbonyl]amino]benzoic acid, trifluoroacetate salt]
